Laboratory results from patent US20040171650A1, “Novel anthelmintic and insecticidal compositions” (priority 2003, published 2004).

Biological target: DAR-2 (Drosophila melanogaster, UniProt Q7KRX1)
Assay: DAR-2 (allatostatin receptor) calcium response FLIPR assay in transfected CHO cells
Type: cell-based
Details: CHO cells transfected with DAR-2 DNA; calcium signal (Fluo-3AM, FLIPR)
Method: Compounds of the invention were evaluated in an allatostatin receptor binding assay as has been described (Larsen, M. J. et. al., Biochemical and Biophysical Reseach Communications, 2001, 286, 895-901; Lowery, D. E., et. al., 2001, WO 01/31005). Anthelmintic activity was evaluated in a Ascaris suum muscle tension assay as has been described (Bowman, J. W., et. al., J Neurophys., 1995, 74(5), 1880-8; Davis, R. E., et. al., J. Neurosci., 1989, 9, 403-414).
As previously described (Larsen op.cit.), CHO cells were transfected with the DAR-2 DNA on 10 cm plates ([…]) and were trypsinized 24 h after transfections and were plated at a density of 2×10^4 cells/well in black-walled, 96-well plates and incubated for an additional 24 hrs at 37° C./5% CO2 either with or without pertussis toxin (PTX, 100 ng/ml). On the day of treatment, the media were aspirated, the cells were washed with HBBS/HEPES (Hank's Balanced Salt Solution, supplemented with 10 mM HEPES) and incubated with 4 μM Fluo-3AM in HBSS/HEPES, additionally supplemented with 2.5 mM probenecid to inhibit multi drug resistant pump (0.1 ml/well) for 1 h at 37° C./5% CO2. Plates were washed twice with warm HBSS/HEPES/ probenecid buffer immediately prior to activation of the calcium response and 100 μl buffer/per well was left after the last wash. A calcium response was initiated by the addition of candidate receptor agonist compounds (2× concentration in HBSS/HEPES, 100 μl/well). The DSK-R1/SHEP cells were loaded for 1 h at 37° C./5% CO2 with 4 μM calcium green/0.02% pluronic acid in modified Earle's balanced salt solution containing 4 mM CaCl2 dihydrate, 0.8 mM MgSO4.7H2O, 20 mM NaCl, 20 mM Tris-HEPES, 120 mM N-methyl-D-glucamine/HCl, 5.3 mM KCl, […], and 9 mM Tris base. Fluorescence was measured on a 96-well plate-based fluorescence imaging plate reader (FLIPR) with an argon laser (Molecular Devices, Sunnyvale, Calif.). Basal fluorescence of cells was measured for 20 seconds prior to addition of candidate agonist and the basal fluorescence level was subtracted from the response signal. The calcium signal was measured for approximately 200 seconds with readings every two seconds. Calcium ionophore A23187 was used as a control for non-receptor specific calcium release. […]

DAR-2, sequence (Q7KRX1 entry or part of it): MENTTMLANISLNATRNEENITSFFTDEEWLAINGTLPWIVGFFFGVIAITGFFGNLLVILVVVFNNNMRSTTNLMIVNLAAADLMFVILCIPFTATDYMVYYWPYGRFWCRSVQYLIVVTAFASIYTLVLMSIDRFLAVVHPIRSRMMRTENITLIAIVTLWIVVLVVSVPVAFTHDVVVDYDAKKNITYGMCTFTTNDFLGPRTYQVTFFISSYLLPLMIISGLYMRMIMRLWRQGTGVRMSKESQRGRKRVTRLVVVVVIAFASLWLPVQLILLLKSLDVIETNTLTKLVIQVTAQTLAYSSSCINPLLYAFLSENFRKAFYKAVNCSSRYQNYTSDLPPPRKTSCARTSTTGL

**Q.** `O=C(CSc1nnc(-c2ccncc2)n1-c1ccccc1)c1ccc(Cl)cc1` [Compound 7] was tested. Which IC50 did it give?
**A.** 77 nM

**Q.** For `O=C(CSc1nnc(-c2ccncc2)n1-c1ccccc1)c1ccc(F)cc1` [Compound 11], which IC50 is on record?
**A.** 268 nM

**Q.** How did the IC50 turn out when `COc1ccc(-n2c(SCC(=O)c3ccc4c(c3)OCCO4)nnc2-c2ccncc2)cc1` [Compound 36] was run?
**A.** 103 nM

**Q.** How did the IC50 turn out when `O=C(CSc1nnc(-c2ccncc2)n1-c1ccccc1)c1ccc2c(c1)OCCO2` [Compound 14] was run?
**A.** 436 nM

**Q.** `COc1ccc(C(=O)CSc2nnc(-c3ccc(OC)cc3)n2-c2ccccc2)cc1` [Compound 43] was tested. Which IC50 did it give?
**A.** 0.0014 nM

**Q.** How did the IC50 turn out when `COc1ccc(C(=O)CSc2nnc(-c3ccncc3)n2-c2ccccc2)cc1` [Compound 6] was run?
**A.** 54 nM

**Q.** For `O=C(CSc1nnc(-c2ccncc2)n1-c1ccccc1)c1ccc(Cl)cc1Cl` [Compound 13], which IC50 is on record?
**A.** 1200 nM

**Q.** For `O=C(CSc1nnc(-c2ccncc2)n1-c1ccccc1)c1ccccc1` [Compound 12], which IC50 is on record?
**A.** 124 nM

**Q.** For `CC(=O)Nc1ccc(C(=O)CSc2nnc(-c3ccncc3)n2-c2ccccc2)cc1[N+](=O)[O-]` [Compound 9], which IC50 is on record?
**A.** 765 nM

**Q.** `O=C(CSc1nnc(-c2ccncc2)n1-c1ccccc1)c1ccc2[nH]c(=O)oc2c1` [Compound 15] was tested. Which IC50 did it give?
**A.** 4500 nM

**Q.** For `CC(=O)Nc1ccc(C(=O)CSc2nnc(-c3ccncc3)n2-c2ccccc2)cc1` [Compound 10], which IC50 is on record?
**A.** 297 nM

System: Ascaris suum muscle strip
Assay: Ascaris suum muscle tension assay
Details: 30 uM final bath concentration; 2 cm Ascaris suum muscle strip in Ascaris Ringers Solution, 37°
Method: Compounds of the invention were evaluated in an allatostatin receptor binding assay as has been described (Larsen, M. J. et. al., Biochemical and Biophysical […] Communications, 2001, 286, 895-901; Lowery, D. E., et. al., 2001, WO 01/31005). Anthelmintic activity was evaluated in a Ascaris suum muscle tension assay as has been described (Bowman, J. W., et. al., J Neurophys., 1995, 74(5), 1880-8; Davis, R. E., et. al., J. Neurosci., 1989, 9, 403-414). As previously described (Bowman, op.cit.), a 2 cm segment of Ascaris suum muscle strip was suspended in a muscle bath filled with 37° Ascaris Ringers Solution {ARS; in mM: KCl (24.5), CaCl2 (5.9), MgCl2 (4.9), NaCl (4), NaC2 H3O2 (125) and Tris (5); pH 7.4}. The preparations were initially set at 12-15 g of tension and allowed to stabilize for approximately 15-30 minutes before drug treatment. Test compounds were added by pipet to the bath with final concentration of 30 uM reflecting the dilution in the test chamber. Raw data was collected from the BioReportTM program.

**Q.** With `COc1ccc(C(=O)CSc2nnc(-c3ccncc3)n2-c2ccccc2)cc1` [Compound 6] as the molecule, how does the Activity read?
**A.** Excitatory
